Source: US4035386A, “Propynylamine-substituted dibenzo[b,f]thiepins and dibenz[b,f]oxepins” (Hoffmann-La Roche Inc., priority 1976, dated 1977)

Key:
in vivo = conditions: rats, intraperitoneal; for ED50 at 6 h: rat, in vivo, ip, observed every 30 minutes over a 6-hour period, cataleptic = homolateral extremities crossed at least 10 seconds, read-out: ED50 (dose at which 50% of the animals are cataleptic); for cataleptic effect (in words): in comparison to chlorpromazine
Method: The following compounds were tested:
The foregoing compounds were compared to chlorpromazine, a well-known central depressant, especially well-known as a neuroleptic agent. The test animals are considered to be cataleptic when the homolateral extremities remain in the crossed position for at least 10 seconds. The number of cataleptic animals is recorded every 30 minutes over a 6-hour period.

[1] = tested on: homovanillinic acid (HVA); experiment: Determination of homovanillinic acid (HVA) in brains of treated rats; dopamine turnover in the basal ganglions; format: in vivo; conditions: for Increase of HVA, %: two hours before killing, untreated rats set at 100%; for activity in HVA test compared with chlorpromazine (in words): p.o., in comparison to chlorpromazine
Method: I. determination of Homovanillinic Acid
Two hours prior to being killed, rats are injected with the test substance.
Thereafter, the homovanillinic acid is extracted from the supernatent portion of a homogenized mixture of brains of the treated rats into butylacetate and later into an aqueous solution and is oxidized with potassium ferric cyanide to a fluorescent […]. […] The homovanillinic titer in untreated rats is arbitrarily set at 100%.

SMILES: CN(C)CCCN1c2ccccc2Sc2ccc(Cl)cc21 [Chlorpromazine, reference compound]
- ED50 at 6 h (in vivo): 6 mg/kg
- cataleptic effect (in words) (in vivo): does demonstrate cataleptic effects
- Increase of HVA, % ([1]; 20 mg/kg p.o.): 321%

SMILES: CSc1ccc2c(c1)C(C#CCN(C)C)=Cc1ccccc1S2.O=C(O)/C=C\C(=O)O [Product A, N,N-dimethyl-3-[8-(methylthio)-dibenzo[b,f]thiepin-10-yl]-2-propynylamine maleate]
- ED50 at 6 h (in vivo): > 100 mg/kg
- cataleptic effect (in words) (in vivo): no or, respectively, very weak cataleptic effect
- Increase of HVA, % ([1]; 50 mg/kg p.o.): 330%
- activity in HVA test compared with chlorpromazine (in words) [1]: as strong an activity as chlorpromazine

SMILES: CN(C)CC#CC1=Cc2ccccc2Sc2ccc(Cl)cc21.O=C(O)/C=C\C(=O)O [Product B, N,N-dimethyl-3-(8-chloro-dibenzo[b,f]thiepin-10-yl)-2-propynylamine maleate]
- ED50 at 6 h (in vivo): 100 mg/kg
- cataleptic effect (in words) (in vivo): no or, respectively, very weak cataleptic effect
- Increase of HVA, % ([1]; 50 mg/kg p.o.): 370%
- activity in HVA test compared with chlorpromazine (in words) [1]: as strong an activity as chlorpromazine

SMILES: COc1ccc2c(c1)Sc1ccc(Cl)cc1C(C#CCN(C)C)=C2.CS(=O)(=O)O [Product C, N,N-dimethyl-3-(8-chloro-3-methoxydibenzo[b,f]thiepin-10-yl)-2-propynylamine methanesulfonate]
- ED50 at 6 h (in vivo): > 100 mg/kg
- cataleptic effect (in words) (in vivo): no or, respectively, very weak cataleptic effect
- Increase of HVA, % ([1]; 30 mg/kg p.o.): 320%
- activity in HVA test compared with chlorpromazine (in words) [1]: as strong an activity as chlorpromazine
